Measured values as given in paper PMC6271559, “Synthesis and Evaluation of 2,4-Disubstituted Quinazoline Derivatives with Potent Anti-Angiogenesis Activities” (Molecules, 2014).
Like-named read-outs stand apart in the source and are kept apart here.

Columns and labels:
[1] = system: CNE-2 (human nasopharyngeal cancer) cells; test: MTT cytotoxicity assay, CNE-2; type: cell-based; settings: 48 h, mean of three independent assays
Description: (§1) In the early 80s, scientists proposed anti-angiogenesis as a potential target in cancer therapy. Much research in the past 30 years has targeted tumor angiogenesis as a means of inhibiting the process of tumor-caused blood vessel formation. Endothelial cells, which come from the inner lining of blood vessels, makes up a fundamental part of new blood vessels as well as pre-existing ones. A complete angiogenesis process includes the proliferation, migration, and differentiation of endothelial cells, so a great deal of angiogenesis inhibitors discovered to date target endothelial cells. We thus employed a cell proliferation assay to evaluate the cytotoxicity of quinazoline derivatives against both normal (HUVEC) and tumor cell lines (CNE-2, PC-3, and SMMC-7721 cell lines) so we can screen some molecules that have cytotoxicity against tumor cells but low cytotoxicity against HUVECs. Meanwhile, an appropriate concentration range of these compounds could be determined to further study their inhibitive effects against the proliferation, migration, and differentiation of HUVECs. The cytotoxic activities of quinazoline derivatives against human tumor cell lines CNE-2 (human nasopharyngeal cancer), PC-3 (human prostatic carcinoma), SMMC-7721 (human liver cancer) and Human Umbilical Vein Endothelial Cells (HUVECs) were determined by using the MTT cytotoxicity assay.
(§2) HUVEC, CNE-2, PC-3, and 7721 cell lines were seeded on 96-well plates at a concentration of 5,000 cells per well and exposed to various concentrations of quinazoline derivatives. After 48 h of treatment at 37 °C in a humidified atmosphere of 5% CO2, 5 mg/mL MTT solution (10 μL) was added to each well and further incubated for 4 h. Each well was then added dimethyl sulfoxide (DMSO, 100 μL), and the optical density (OD) was recorded at 490 nm. All measurements were done in triplicate, and the IC50 values were derived from the mean OD values of the triplicate tests versus drug concentration curves.

[2] = system: PC-3 (human prostatic carcinoma) cells; test: MTT cytotoxicity assay, PC-3; type: cell-based; settings: Prostatic carcinoma cell, 48 h, mean of three independent assays
Description: as §1, §2

[3] = system: chick embryo chorioallantoic membrane (CAM); test: CAM angiogenesis assay; type: in vivo; settings: 30 μg/10 μL on filter disc, 48 h
Protocol: CAMs treated with 0.9% NaCl solution (negative control) were surrounded by all antoic vessels as newly-formed capillaries converging radially toward the sponge in a “spoked wheel” pattern (number of vessels 24 ± 3).
The in vivo CAM angiogenesis model as initially described by Folkman and then modified by Maragoudakis was used. Fertilized chicken eggs were used after incubating them for 8 days. A 1 cm × 1 cm window was made in the shell to create a pocket to expose the CAM. A filter disc with 0.9% NaCl solution or 30 μg/10 μL of compounds was then placed upon the CAM from 10 eggs per treatment and 48 h later, the CAMs were fixed with 4% paraformaldehyde and the vessel number from three random fields around the filter disc were pictured using a microscope.

[4] = system: HUVEC adhesion to collagen; test: HUVEC adhesion assay on type I collagen; type: cell-based, human; settings: Homo sapiens, HUVEC, adhesion of HUVEC on collagen, 37 °C
Description: A perfect angiogenesis inhibitor must be show lower toxicity toward HUVECs, while showing high inhibitive capability towards the proliferation, migration, and differentiation of HUVECs. To assess the inhibitory effects of 2,4-disubstituted quinazoline derivatives, three assays were used: HUVEC adhesion assay, HUVEC migration assay and CAM assay. Firstly, to test the inhibitory effects of quinazoline derivatives on the attachment of endothelial cells to type I collagen, cell adhesion assays were carried out.
Cell adhesion assay was carried out by a reported method with slight modification. Wells of a 96-well plate were coated at room temperature overnight with rat trail tendon collagen type I (2 μg) in PBS in a final volume of 100 μL. The wells were washed three times with PBS ([…]) and then blocked with 0.2% bovine serum albumin (BSA) in PBS ([…]) for 2 h at 37 °C in a cell culture incubator. The wells were then washed three times with PBS ([…]). HUEVCs were detached from the dish, resuspended in DMEM, and added (50 μL, 10^4 cells/mL) to each well followed by the related compounds (50 μL) at various concentrations. The plates were incubated for 1 h or 3 h at 37 °C and then washed three times with PBS (100 μL). The attached cells were fixed and stained with 0.2 % crystal violet in 20% methanol for 10 min, then washed three times with PBS ([…]). The cells were solubilized by 2% SDS and the OD was measured at 570 nm. Attachment was determined by both 1 and 3 h as described above. Each compound was tested in triplicate and each experiment was repeated three times.

[5] = system: SMMC-7721 (human liver cancer) cells; test: MTT cytotoxicity assay, SMMC-7721; type: cell-based; settings: 48 h, mean of three independent assays
Description: as §1, §2

HUVEC migration = HUVEC migration (wounding) assay; type: cell-based, human; settings: 15 μM and 30 μM, 24 h
Protocol: Compounds were tested at concentrations of both 15 μM and 30 μM, and all seven compounds tested in this assay could inhibit HUVEC migration.
The HUVEC cell line was seeded on a pre-treated 48-well culture plate at a concentration of 2 × 10^4 cells per well in a volume of 200 μL, and a portion of the cell monolayer was scraped off with a sterile disposable rubber policeman. After the DMEM medium was removed, the cells in each well were then washed three times with PBS (phosphate-buffer saline), and fresh medium was added to each well. The wells were then tested after incubation for 24 h with or without quinazoline derivatives at various concentrations. Two random pictures were taken for each wound using a microscope. The area of the migrations was measured using Photoshop CS3. All measurements were done in triplicate, and the experiments were done at least three times.

[6] = MTT cytotoxicity assay, HUVEC; type: cell-based; settings: human, HUVEC (human umbilical vein endothelial cells), mean of three independent assays
Description: as §1, §2

melting point: 167 to 168 °C
SMILES: CN(C)CCCNc1nc(-c2ccccc2NC(=O)CCN2CCN(C)CC2)nc2ccccc12 [Compound 11d, N-(2-(4-(3-(Dimethylamino)propylamino)quinazolin-2-yl)phenyl)-3-(4-methylpiperazin-1-yl)propane-mide]
IC50 [1]: 9.3 ± 0.2 µM
IC50 [2]: 9.8 ± 0.3 µM
inhibition of angiogenesis in CAM assay [3]: excellent inhibition of angiogenesis
inhibition at 15 µM ([4]; 1 h, 1 h, read-out: 1 h Inhibition Rate % Dose 15 μM): 47.4 ± 0.1%
inhibition at 30 µM ([4]; 1 h, 1 h, read-out: 1 h Inhibition Rate % Dose 30 μM): 65.8 ± 0.2%
inhibition at 15 µM ([4]; 3 h, 3 h, read-out: 3 h Inhibition Rate % Dose 15 μM): 53.3 ± 0.3%
inhibition at 30 µM ([4]; 3 h, 3 h, read-out: 3 h Inhibition Rate % Dose 30 μM): 71.2 ± 0.1%
IC50 [5]: 10.9 ± 0.2 µM
inhibition of HUVEC migration (HUVEC migration): best inhibitory activity
IC50 at 48 h [6]: 47.2 ± 0.2 µM
